Common to all, as to type: cell-based, human
Assay [1] concerns OE33P radio-sensitive oesophageal adenocarcinoma cells. The assay is described as follows: Cell number after 24 hours drug treatment (crystal violet absorbance), OE33P. The following applies: 10 μM. Here is the method:
(§1) OE33P radio-sensitive and OE33R radio-resistant oesophageal adenocarcinoma cells were used to test the effects of the compounds 11B HCl, […], 11B CC16 HCl, 11B 471 and 11B 268 on cell number. Cells were maintained in RPMI media supplemented with 10% foetal calf serum, penicillin (100 U/ml) and streptomycin (100 gig/ml). A total of 11.000 or 13,000 cells, in 100 μl media, were seeded per well in 24 well plates and left to incubate for 24 hours, with an additional 150 μl media added after 5 hours. The media was replaced with solutions containing 10 μM of 11B HCl, 11B CC11 HCl, 11B CC16 HCl, 11B 471, 11B 268 or fresh media as a control. Each drug had 6 replicates. After 24 hours of treatment, the cells were fixed with 1% glutaraldehyde for 15 minutes and then stained with crystal violet for 30 minutes. The plates were blotted and dried overnight. The cells were resuspended with 1% TritonX-100 and shaken for 15 minutes. The absorbance was read on a spectrophotometer at 590 nm.
(§2) OE33P radiosensitive and OE33R radioresistant cells were used to test the effects of the compound 11B_Z_HCl on toxicity. Cells were maintained in RPMI media supplemented with 10% foetal calf serum, penicillin (100 U/ml) and streptomycin (100 μg/ml). A total of 11,000 cells, in 100 μl media, were seeded per well in 24 well plates and left to incubate for 24 hours, with an additional 150 μl media added after 5 hours. The media was replaced with solutions containing 10 μM of 11B_Z_HCl or fresh media as a control. Each treatment had 6 replicates. After 24 hours of treatment, the cells were fixed with 1% glutaraldehyde for 15 minutes and then stained with crystal violet for 30 minutes. The plates were blotted and dried overnight. The cells were resuspended with 1% TritonX-100 and shaken for 15 minutes. The absorbance was read on a spectrophotometer at 590 nm.

In assay [2] the test system is OE33R radio-resistant oesophageal adenocarcinoma cells. Briefly: Cell number after 24 hours drug treatment (crystal violet absorbance), OE33R. The following applies: 10 μM. Here is the method: as §1, §2
For assay [3] the test system is unchanged. Briefly: Quantification of oxidative phosphorylation (OCR, Seahorse), OE33R. The following applies: 10 μM, 24 hours. The method, then: OE33P radiosensitive and OE33R radio-resistant oesophageal adenocarcinoma cells were used to test the effects of the compounds 11B HCl, 11B CC11 HCl, 11B CC16 HCl, 11B 471 and 11B 268 on oxidative phosphorylation. Cells were maintained in RPMI media supplemented with 10% foetal calf serum, penicillin (100 U/ml) and streptomycin (100 μg/ml). A total of 11,000-13,000 cells, in 100 μl media, were seeded per well in 24 well plates and left to incubate for 24 hours, with an additional 150 μl media added after 5 hours. The media was replaced with solutions containing 10 μM of 11B HCl, 11B CC11 HCl, 11B CC16 HCl, 11B 471, 11B 268 or fresh media as a control. Each drug had 6 replicates. After 24 hours of treatment, media was replaced with modified DMEM supplemented with 0.5 mM glucose. Rates of oxidative phosphorylation were determined using Seahorse Biosciences metabolism technology. The media was disposed and the cells washed with PBS. The cells were fixed with 1% glutaraldehyde for 15 minutes and then stained with crystal violet for 30 minutes. The plates were blotted and dried overnight. The cells were resuspended with 1% TritonX-100 and shaken for 15 minutes. The absorbance was read on a spectrophotometer at 595 nm. Rates of oxidative phosphorylation were then normalised to cell number.
OE33P radiosensitive and OE33R radioresistant oesophageal adenocarcinoma cells were used to test the effects of the compound 11B_Z_HCl on oxidative phosphorylation. Cells were maintained in RPMI media supplemented with 10%0/foetal calf serum, penicillin […]) and streptomycin (100 μg/ml). A total of 11,000 cells, in 100 μl media, were seeded per well in 24 well plates and left to incubate for 24 hours, with an additional 150 μl media added after 5 hours. The media was replaced with solutions containing 10 μM of 11B_Z_HCl or fresh media as a control. Each treatment had 6 replicates. After 24 hours of treatment, media was replaced with modified DMEM supplemented with 0.5 mM glucose. Rates of oxidative phosphorylation were determined using Seahorse Biosciences metabolism technology. […]

For assay [4], the system named is RAD51L3, MMS19, SMUG1, PARP1 and MLH1 in OE33R cells. The assay is described as follows: Gene expression of DNA repair proteins (qPCR), OE33R. The following applies: 10 μM, 24 hours, reduction of RAD51L3, MMS19, PARP1 and MLH1. Here is the method: O[…] radiosensitive and O[…] radioresistant oesophageal adenocarcinoma cells were used to test the effects of the above compounds on the gene expression of DNA repair proteins. Cells were maintained in RPMI media supplemented with 10% foetal calf serum, penicillin (100 U/ml) and streptomycin (100 μg/ml). Cells were seeded in 6 well plates and left to incubate for 24 hours. Cells were treated 10 μM of the above compounds or fresh media as a control. After 24 hours of treatment, RNA and cDNA was isolated and qPCR performed using primer probes to the following primer probes to RAD51L3, MMS19, SMUG1, PARP1 and MLH1. O[…] radiosensitive and O[…] radioresistant oesophageal adenocarcinoma cells were used to test the effects of compounds 11B HCl, 11B_CC11_HCl and 11B_Z_HCL on the gene expression of DNA repair proteins. Cells were maintained in RPMI media supplemented with 10% foetal calf serum, penicillin (100 U/ml) and streptomycin (100 μg/ml). Cells were seeded in 6 well plates and left to incubate for 24 hours. Cells were treated 10 μM of the above compounds or fresh media as a control. After 24 hours of treatment, RNA and cDNA was isolated and qPCR performed using primer probes to the following primer probes to RAD51L3, MMS19, SMUG1, PARP1 and MLH1.
On the technique in general: Quantitative PCR measures a nucleic acid by following its amplification.

The values that follow come from patent publication US9815788B2, “Anti-angiogenic compounds” (University College Dublin National University of Ireland, …, priority 2012, dated 2017).

Counter-ions that a name gives are not always drawn.

In the case of `C/C(=C\c1ccccc1O)c1ccc2ccccc2n1.Cl` [Compound 11B_CC11_HCl, (E)-2-(2-Quinolin-2-yl-propenyl)-phenol HCl salt], the “cell number, measured by % absorbance” value in assay [1] and in assay [2] was “did not significantly reduce cell number” each time. Further, the “oxygen consumption rate (OCR), a measure of oxidative phosphorylation” value (from here on “oxygen consumption rate (OCR), a measure”) in assay [3] was “significantly reduce”. The “expression of DNA repair genes” value in assay [4] is “Reduction”.

For `Cl.Oc1ccccc1/C=C\c1ccc2ccccc2n1` [Compound 11B_Z_HCl, (Z)-2-(2-(Quinolin-2-yl)vinyl) phenol HCl salt], the “cell number, measured by % absorbance” value in assay [1] (HCl salt) and in assay [2] (HCl salt) was “did not significantly reduce cell number” each time. In assay [3] (HCl salt), the “oxygen consumption rate (OCR), a measure” value was “Significantly Reduces”. The “expression of DNA repair genes” value in assay [4] is “Reduction”.

With `Oc1ccccc1/C=C/c1ccc2ccccc2n1` [11B HCl], the “cell number, measured by % absorbance” value in assay [1] and in assay [2] was “did not significantly reduce cell number” throughout. Moreover, the “oxygen consumption rate (OCR), a measure” value in assay [3] is recorded as “significantly reduce”. Further, in assay [4], the “expression of DNA repair genes” value is “Reduction”.
